Test results: patent US20070099947A1, “Methods and compositions for the treatment of brain reward system disorders by combination therapy” (Alkermes, Inc., priority 2005, published 2007)

Assays:
[1] = tested on: self-administration of ethanol; assay: Operant self-administration of ethanol (lever presses for 10% ethanol cocktail); format: in vivo, Male Wistar rats; conditions: for Percent Change from Non-Drug Baseline: Repeated Dosing: Day 1 / Percent Change from Non-Drug Baseline: Repeated Dosing: Day 5 / Percent Change from Non-Drug Baseline: Single Dosing: lever presses for ethanol, naltrexone ED75 SC; for Percent Change from Non-Drug Baseline: Repeated Dosing: Day 1 / Percent Change from Non-Drug Baseline: Repeated Dosing: Day 5: once a day for 5 days; for effect on number of lever presses for ethanol over the dose range: naltrexone 0-6 mg/kg SC, 30 min before session; for Lever Presses (Mean ± SEM): 30 min session; for decrease in number of lever presses for ethanol compared to non-drug treated (baseline): naltrexone ED75 0.05-0.075 mg/kg SC alone
Method: Male Wistar rats (initial weight of 200±30 grams; Charles River Laboratories, MA) were individually housed with free access to food and water. The vivarium was maintained on a 12 hour light/dark cycle with a room temperature of 22±3° C.
Animals were trained daily in an operant chamber to press a lever to receive access to an ethanol cocktail as a reinforcer using a saccharin fading procedure. […] The final ethanol cocktail contained 10% ethanol in 0.04% saccharine. Each session lasted 30 minutes, during which the rat could press the lever twice to gain access to 0.1 mL of the ethanol cocktail. The operant chamber (Coulboume Instruments, Allentown, Pa.) is a computer-controlled automated system which recorded the number of lever presses completed by a rat. At the end of the training period (6-8 weeks), rats which consistently drank a minimum intake of 0.6 g/kg/hour of EtOH (approximately 60 bar presses) were selected to participate in the drug studies. These trained rats were used repeatedly throughout these studies to control for intra-subject variability. Assessments of drug effects were made following a single dosing, with a minimum of a 2 day drug washout period between arms of studies.
The ability of naltrexone to reduce ethanol drinking (i.e., decrease the number of lever presses) was assessed in this animal model of self administration of ethanol. […] The total number of lever presses was recorded over the 30 minute test session. […] In addition, oral activity was also assessed. […] The animals were tested in the operant chambers one hour later and the number of lever presses for ethanol was recorded for the 30 minute session.
This dose allows one to determine if the co-administered drugs impaired or enhanced naltrexone's effect on ethanol drinking. The drugs were administered orally 30 minutes prior to a naltrexone injection (SC), and 60 minutes prior to the beginning of the ethanol drinking test session. The number of lever presses for the ethanol cocktail was recorded at the end of the 30 minute session.
(§1) Repeated Dosing. The previous studies were conducted using a single dosing procedure. To determine if this drug interaction might be further enhanced with repeated daily dosing or conversely, the effect on decreasing alcohol self-administration is lost (due to tolerance) following multiple daily dosing, the study was repeated with a once-a-day for 5 days dosing procedure. […] Animals were tested on Day 1 and on Day 5.
as §1, with “study was” for “studies were”, “repeated” for “repeated daily”

[2] = Pharmacokinetic profile of opioid antagonists after IV, PO and SC administration; conditions: rat; for AUC(0-inf) / bioavailability: male, Sprague Dawley, in vivo
Method: Blood samples were collected for 6 hours post-dose. Concentrations of each parent drug were determined by LC/MS-MS. Pharmacokinetic parameters were determined by noncompartmental analysis.

[3] = tested on: morphine-induced analgesia; assay: Hotplate test: inhibition of morphine-induced analgesia; format: in vivo, Male Wistar rats; conditions: 5 consecutive days SC dosing; first vs last day response latencies

Cc1c(C(=O)NN2CCCCC2)nn(-c2ccc(Cl)cc2Cl)c1-c1ccc(I)cc1 [AM-251]
lever pressing for ethanol compared to non-drug treated conditions ([1]; AM-251 3.0 mg/kg alone): no effect
Percent Change from Non-Drug Baseline: Repeated Dosing: Day 1 ([1]; AM-251 1 mg/kg PO): −2%
Percent Change from Non-Drug Baseline: Repeated Dosing: Day 5 ([1]; AM-251 1 mg/kg PO): +19%

NC[C@H](CC(=O)O)c1ccc(Cl)cc1 [Baclofen, R(+)-Baclofen]
lever pressing for ethanol compared to non-drug treated conditions ([1]; baclofen 3.0 mg/kg alone, p<0.01): significantly decreased the self-administration of ethanol
Percent Change from Non-Drug Baseline: Repeated Dosing: Day 1 ([1]; baclofen 0.3 mg/kg PO): −35%
Percent Change from Non-Drug Baseline: Repeated Dosing: Day 5 ([1]; baclofen 0.3 mg/kg PO): −30%

O=C1CC[C@@]2(O)[C@H]3Cc4ccc(O)c5c4[C@@]2(CCN3CC2CC2)[C@H]1O5 [Naltrexone]
AUC(0-inf) ([2]; po, 10 mg/kg): 150 ng·h/mL
bioavailability ([2]; po, 10 mg/kg): 3%
AUC(0-inf) ([2]; sc, 0.1 mg/kg): 14.4 ng·h/mL
bioavailability ([2]; sc, 0.1 mg/kg): 31%
absorption ([2]; PO or SC): rapidly absorbed
development of tolerance in blocking morphine-induced analgesia [3]: no development of tolerance
effect on decreasing self-administration of ethanol ([1]; 0.5 mg/kg SC, 30 minutes prior to testing): equivalent effects
effect on decreasing self-administration of ethanol (oral activity) ([1]; 10 mg/kg oral gavage, tested one hour later): only RDC-0313-01 was active
ED75 (dose of naltrexone that produced a 25% decrease in lever responses for ethanol) ([1]; SC, titrated for each individual animal): 0.05 to 0.075 mg/kg
Percent Change from Non-Drug Baseline: Repeated Dosing: Day 1 ([1]; AM-251 1 mg/kg PO): −24%
Percent Change from Non-Drug Baseline: Repeated Dosing: Day 5 ([1]; AM-251 1 mg/kg PO): −19%
Percent Change from Non-Drug Baseline: Single Dosing ([1]; AM-251 PO): −33%
Percent Change from Non-Drug Baseline: Repeated Dosing: Day 1 ([1]; baclofen 0.3 mg/kg PO): −43%
Percent Change from Non-Drug Baseline: Repeated Dosing: Day 5 ([1]; baclofen 0.3 mg/kg PO): −57%
Percent Change from Non-Drug Baseline: Single Dosing ([1]; baclofen PO): −18%
decrease in lever presses versus baseline and vehicle control ([1]; lowest dose of naltrexone tested, 0.05 mg/kg): no significant decrease
effect on number of lever presses for ethanol over the dose range [1]: Suppresses the Self-Administration of Ethanol in a Dose-Dependent Manner
effect on number of lever presses for ethanol over the dose range ([1]; listed as naltrexone): dose-dependent decrease in the number of lever presses
Approximate Absolute Ethanol Consumed ([1]; naltrexone 0.05 mg/kg SC): 1.0 g/kg
Lever Presses (Mean ± SEM) ([1]; naltrexone 0.05 mg/kg SC): 132 ± 13.3
Approximate Absolute Ethanol Consumed ([1]; naltrexone 0.1 mg/kg SC): 0.7 g/kg
Lever Presses (Mean ± SEM) ([1]; naltrexone 0.1 mg/kg SC): 88 ± 8.6
Approximate Absolute Ethanol Consumed ([1]; naltrexone 0.5 mg/kg SC): 0.6 g/kg
Lever Presses (Mean ± SEM) ([1]; naltrexone 0.5 mg/kg SC): 83 ± 12.1
Approximate Absolute Ethanol Consumed ([1]; naltrexone 1.0 mg/kg SC): 0.3 g/kg
Lever Presses (Mean ± SEM) ([1]; naltrexone 1.0 mg/kg SC): 43 ± 8.6
Approximate Absolute Ethanol Consumed ([1]; naltrexone 3.0 mg/kg SC): 0.2 g/kg
Lever Presses (Mean ± SEM) ([1]; naltrexone 3.0 mg/kg SC): 24 ± 8.1
Approximate Absolute Ethanol Consumed ([1]; naltrexone 6.0 mg/kg SC): 0.2 g/kg
Lever Presses (Mean ± SEM) ([1]; naltrexone 6.0 mg/kg SC): 21 ± 5.5
effect on decreasing ethanol drinking at the higher doses ([1]; naltrexone 3 and 6 mg/kg): appeared to plateau
decrease in number of lever presses for ethanol compared to non-drug treated (baseline) ([1]; AM-251 acute dosing study): 32.5%
decrease in number of lever presses for ethanol compared to non-drug treated (baseline) ([1]; baclofen single dosing study): 18%
